Measured values: patent US20230113037A1 (Bayer Aktiengesellschaft, priority 2019, published 2023)
Like-named read-outs stand apart in the source and are kept apart here.

Assays:
AHR [1] = target: T1, AHR (Homo sapiens, UniProt P35869); experiment: In vitro assay 1: antagonism in human cell line (AHR transactivation, firefly luciferase reporter, kynurenic acid prestimulated); format: cell-based; conditions: AHR Antagonism Human IC50 [M]
T1 construct: U87 MG glioblastoma cells (ATCC #HTB-14) endogenously expressing AHR; endogenous in cells; host or cells: U87 MG glioblastoma cells (ATCC #HTB-14)
T1 sequence (P35869 11-848): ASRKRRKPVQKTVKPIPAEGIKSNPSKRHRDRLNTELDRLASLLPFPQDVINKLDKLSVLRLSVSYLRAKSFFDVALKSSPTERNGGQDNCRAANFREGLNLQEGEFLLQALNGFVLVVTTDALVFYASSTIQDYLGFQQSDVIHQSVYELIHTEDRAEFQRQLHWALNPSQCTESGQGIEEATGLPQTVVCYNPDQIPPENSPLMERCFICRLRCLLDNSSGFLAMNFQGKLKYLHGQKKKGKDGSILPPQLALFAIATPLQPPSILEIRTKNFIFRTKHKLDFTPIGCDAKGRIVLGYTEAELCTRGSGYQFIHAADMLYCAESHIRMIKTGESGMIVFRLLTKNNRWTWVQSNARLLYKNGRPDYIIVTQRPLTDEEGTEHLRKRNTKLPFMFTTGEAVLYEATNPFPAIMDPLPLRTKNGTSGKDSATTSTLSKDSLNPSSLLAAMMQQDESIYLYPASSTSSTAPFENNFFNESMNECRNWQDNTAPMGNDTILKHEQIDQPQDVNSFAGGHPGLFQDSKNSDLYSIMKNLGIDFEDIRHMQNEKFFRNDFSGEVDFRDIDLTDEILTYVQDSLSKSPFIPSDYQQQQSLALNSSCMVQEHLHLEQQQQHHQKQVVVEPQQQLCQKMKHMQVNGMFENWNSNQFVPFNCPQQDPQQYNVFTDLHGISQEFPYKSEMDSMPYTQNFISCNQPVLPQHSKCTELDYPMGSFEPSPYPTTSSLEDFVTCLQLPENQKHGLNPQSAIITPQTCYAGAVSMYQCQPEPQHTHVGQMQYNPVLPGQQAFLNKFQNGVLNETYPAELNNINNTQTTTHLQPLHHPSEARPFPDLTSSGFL
How it was run: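 Antagonism is measured against kynurenic acid prestimulation in U87 MG glioblastoma cells carrying stable DRE-luciferase and Renilla reporters. Positive inhibition control: 150 μM kynurenic acid with 5 μM staurosporine. Values are normalized to controls; repeats are averaged or given as medians.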

AHR [2] = target: T2, AHR (Mus musculus, UniProt P30561); experiment: In vitro assay 3: antagonism in mouse cell line (AHR transactivation, firefly luciferase reporter, kynurenic acid prestimulated); format: cell-based
T2 sequence (P30561 1-848 P471L/N533S/M589L): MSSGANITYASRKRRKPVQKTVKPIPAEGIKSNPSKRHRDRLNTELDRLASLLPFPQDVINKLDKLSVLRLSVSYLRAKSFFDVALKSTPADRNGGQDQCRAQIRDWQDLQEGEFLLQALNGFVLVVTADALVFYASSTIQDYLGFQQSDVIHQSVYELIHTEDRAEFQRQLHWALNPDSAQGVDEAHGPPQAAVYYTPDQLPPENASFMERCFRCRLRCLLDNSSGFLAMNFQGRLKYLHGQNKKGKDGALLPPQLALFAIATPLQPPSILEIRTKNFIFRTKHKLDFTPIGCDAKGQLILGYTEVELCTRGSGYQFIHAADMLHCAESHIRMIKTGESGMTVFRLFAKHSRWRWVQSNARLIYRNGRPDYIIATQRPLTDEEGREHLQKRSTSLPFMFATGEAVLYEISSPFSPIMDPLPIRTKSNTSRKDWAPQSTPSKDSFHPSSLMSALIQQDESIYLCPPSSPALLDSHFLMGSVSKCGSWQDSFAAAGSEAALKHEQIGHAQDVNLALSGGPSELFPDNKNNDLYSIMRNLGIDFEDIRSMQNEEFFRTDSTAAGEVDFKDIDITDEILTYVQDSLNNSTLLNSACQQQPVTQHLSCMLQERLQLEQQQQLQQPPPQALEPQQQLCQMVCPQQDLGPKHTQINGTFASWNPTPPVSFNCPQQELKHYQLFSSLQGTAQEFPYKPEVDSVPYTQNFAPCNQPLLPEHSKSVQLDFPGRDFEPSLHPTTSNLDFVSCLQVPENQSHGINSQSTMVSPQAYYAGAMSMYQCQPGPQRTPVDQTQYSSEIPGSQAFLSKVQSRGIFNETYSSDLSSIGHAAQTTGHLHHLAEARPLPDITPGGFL
How it was run: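 Luminescence from an AHR-dependent DRE-luciferase reporter, stably integrated in mouse cells, quantifies blockade of kynurenic acid-driven activation. Unstimulated cells mark maximal inhibition; normalization uses both control types, and multiply tested compounds carry mean or median values.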

[3] = Hepa 1c1c7 cells, 200 μM kynurenic acid, 20 hours, firefly luciferase reporter, read-out: AHR Antagonism Mouse IC50
[4] = mouse Hepa 1c1c7 cells, 200 μM kynurenic acid, 20 hours, read-out: AHR Antagonism Mouse IC50

SMILES	IC50 (AHR [1]; firefly luciferase reporter) [M]	IC50 (AHR [2]; [3]) [nM]	IC50 (AHR [1]) [M]	IC50 (AHR [2]; [4]) [nM]	IC50 (AHR [2]; read-out: AHR Antagonism Mouse IC50, mouse Hepa 1c1c7 cells, 200 μM kynurenic acid, 20 hours) [nM]
Cc1nn(C)cc1-c1nc2c3cccc(Br)c3nc(N[C@@H]3CCCCNC3=O)n2n1 [Example 815, (3R)-3-{[7-bromo-2-(1,3-dimethyl-1H-pyrazol-4-yl)[1,2,4]triazolo[1,5-c]quinazolin-5-yl]amino}azepan-2-one]	2.78e-10	1.6	–	–	–
C[C@@H](Nc1nc2c(Br)cccc2c2nc(-c3cnn(C)c3)nn12)C(=O)N1C[C@H]2C[C@@H]1CN2C [Example 902]	8e-08	95	–	–	–
O=C1NCCNC[C@H]1Nc1nc2c(Br)cccc2c2nc(-c3cn[nH]c3)nn12 [Example 976, (6R)-6-{[7-bromo-2-(1H-pyrazol-4-yl)[1,2,4]triazolo[1,5-c]quinazolin-5-yl]amino}-1,4-diazepan-5-one]	3.11e-06	4640	–	–	–
CSc1ccccc1-c1nc2c3ccccc3nc(N[C@@H]3CCCCNC3=O)n2n1 [Example 478, (3R)-3-({2-[2-(methylsulfanyl)phenyl][1,2,4]triazolo[1,5-c]quinazolin-5-yl}amino)azepan-2-one]	–	–	4.98e-08	2.99	–
O=C1NCCCC[C@@H]1Nc1nc2ccccc2c2nc(-c3ccncc3F)nn12 [Example 481, (3S)-3-{[2-(3-fluoropyridin-4-yl)[1,2,4]triazolo[1,5-c]quinazolin-5-yl]amino}azepan-2-one]	–	–	1.02e-06	104	–
C[C@@H](Nc1nc2c(Br)cccc2c2nc(-c3cnn(C)c3)nn12)C(=O)NCCN1CCN(C)CC1 [Example 783, N^2-[7-bromo-2-(1-methyl-1H-pyrazol-4-yl)[1,2,4]triazolo[1,5-c]quinazolin-5-yl]-N-[2-(4-methylpiperazin-1-yl)ethyl]-D-alaninamide]	1.71e-07	291	–	–	–
CCCNC(=O)[C@@H](C)Nc1nc2c(Br)cccc2c2nc(-c3ccc(Cl)cc3OC(F)(F)F)nn12 [Example 693, N^2-{7-bromo-2-[4-chloro-2-(trifluoromethoxy)phenyl][1,2,4]triazolo[1,5-c]quinazolin-5-yl}-N-propyl-D-alaninamide]	–	–	7.43e-09	2.52	–
CCCNC(=O)[C@H](CC)Nc1nc2c(Br)cccc2c2nc(-c3ccc(Cl)cc3OC(F)F)nn12 [Example 683, (2S)-2-({7-bromo-2-[4-chloro-2-(difluoromethoxy)phenyl][1,2,4]triazolo[1,5-c]quinazolin-5-yl}amino)-N-propylbutanamide]	–	–	> 5.71e-07	16.6	–
Cc1cscc1-c1nc2c3ccccc3nc(N[C@H]3CCCCNC3=O)n2n1 [Example 539, (3S)-3-{[2-(4-methylthiophen-3-yl)[1,2,4]triazolo[1,5-c]quinazolin-5-yl]amino}azepan-2-one]	–	–	6.16e-08	7.71	–
CCCC[C@H](Nc1nc2ccccc2c2nc(-c3cccc(OC(F)(F)F)c3)nn12)C(N)=O (racemic) [Example 322, N^2-{2-[3-(trifluoromethoxy)phenyl][1,2,4]triazolo[1,5-c]quinazolin-5-yl}-norleucinamide]	–	–	6.42e-08	–	35.7
O=C1NCC[C@H]1Nc1nc2c(Br)cccc2c2nc(-c3ccccc3OC(F)(F)F)nn12 [Example 219, (3R)-3-({7-bromo-2-[2-(trifluoromethoxy)phenyl][1,2,4]triazolo[1,5-c]quinazolin-5-yl}amino)pyrrolidin-2-one]	–	–	8.15e-08	7.14	–
COc1ccc(-c2nc3c4ccccc4nc(NC4CCCNC4=O)n3n2)cc1 (single isomer, unassigned) [Example 38, 3-{[2-(4-methoxyphenyl)[1,2,4]triazolo[1,5-c]quinazolin-5-yl]amino}piperidin-2-one]	–	–	1.94e-08	69.8	–

Continued, in another order:

IC50 (AHR [1]; firefly luciferase reporter) [M]	IC50 (AHR [2]; [3]) [nM]	IC50 (AHR [1]) [M]	IC50 (AHR [2]; [4]) [nM]	SMILES	IC50 (AHR [2]; read-out: AHR Antagonism Mouse IC50, mouse Hepa 1c1c7 cells, 200 μM kynurenic acid, 20 hours) [nM]
–	–	2.84e-08	83.2	COc1cccc(-c2nc3c4cccc(C)c4nc(N[C@H]4CCCCNC4=O)n3n2)c1 [Example 141]	–
1.2e-07	25.2	–	–	C[C@@H](Nc1nc2c(Br)cccc2c2nc(-c3cnn(C)c3)nn12)C(=O)N1C[C@H]2C[C@@H]1CO2 [Example 898, (2R)-2-{[7-bromo-2-(1-methyl-1H-pyrazol-4-yl)[1,2,4]triazolo[1,5-c]quinazolin-5-yl]amino}-1-[(1R,4R)-2-oxa-5-azabicyclo[2.2.1]heptan-5-yl]propan-1-one]	–
–	–	2.09e-09	4.32	COc1ccc(-c2nc3c4ccccc4nc(N[C@H](C)C(=O)N4CCOCC4)n3n2)cc1 [Example 778, (2R)-2-{[2-(4-methoxyphenyl)[1,2,4]triazolo[1,5-c]quinazolin-5-yl]amino}-1-(morpholin-4-yl)propan-1-one]	–
3.54e-07	5040	–	–	COc1ccc(-c2nc3c4cccc(N5CCCC5=O)c4nc(N[C@@H]4CCCCNC4=O)n3n2)cc1 [Example 1001, (3R)-3-{[2-(4-methoxyphenyl)-7-(2-oxopyrrolidin-1-yl)[1,2,4]triazolo[1,5-c]quinazolin-5-yl]amino}azepan-2-one]	–
1.54e-08	18.5	–	–	Cc1c(-c2nc3c4cccc(F)c4nc(N[C@@H]4CCCCNC4=O)n3n2)cnn1C [Example 835, (3R)-3-{[2-(1,5-dimethyl-1H-pyrazol-4-yl)-7-fluoro[1,2,4]triazolo[1,5-c]quinaozlin-5-yl]amino}azepan-2-one]	–
7.72e-07	286	–	–	CC(C)n1cc(-c2nc3c4cccc(F)c4nc(N[C@@H]4CNCCNC4=O)n3n2)cn1 [Example 971, (6R)-6-({7-fluoro-2-[1-(propan-2-yl)-1H-pyrazol-4-yl][1,2,4]triazolo[1,5-c]quinazolin-5-yl}amino)-1,4-diazepan-5-one]	–
–	–	1.38e-09	1.02	O=C1NCCCC[C@H]1Nc1nc2ccccc2c2nc(-c3ccn4ccnc4c3)nn12 [Example 390, (3R)-3-{[2-(Imidazo[1,2-a]pyridin-7-yl)[1,2,4]triazolo[1,5-c]quinazolin-5-yl]amino}azepan-2-one]	–
–	–	3.48e-06	145	COc1cccc(-c2nc3c4ccccc4nc(N[C@@H](CCCCNC(=O)OC(C)(C)C)C(N)=O)n3n2)c1 [Example 101, tert-butyl[(5S)-6-amino-5-{[2-(3-methoxyphenyl)[1,2,4]triazolo[1,5-c]quinazolin-5-yl]amino}-6-oxohexyl]carbamate]	–
–	–	1.36e-06	625	COc1ccc(-c2nc3c4c(C(F)(F)F)cccc4nc(N[C@@H]4CNCCNC4=O)n3n2)cc1 [Example 285, (6R)-6-{[2-(4-methoxyphenyl)-10-(trifluoromethyl)[1,2,4]triazolo[1,5-c]quinazolin-5-yl]amino}-1,4-diazepan-5-one]	–
–	–	9.89e-09	40.6	CCn1cc(-c2nc3c4cccc(OC)c4nc(N[C@@H]4CCCCNC4=O)n3n2)c(C)n1 [Example 753, (3R)-3-{[2-(1-ethyl-3-methyl-1H-pyrazol-4-yl)-7-methoxy[1,2,4]triazolo[1,5-c]quinazolin-5-yl]amino}azepan-2-one]	–
